What was measured:
[1] = molecular target: Human CB1 Receptor-1b (hCB1b) (Homo sapiens (Human), UniProt P21554); experiment: hCB1b Gai cyclic AMP (cAMP) TR-FRET assay, antagonism of EC80 CP55940 with forskolin; type: cell-based; details: hCB1b cells, 30 min pre-incubation, read-out: CB1b IC50
Method: (§1) Example 3. Biochemical Methods Human CB1 Receptor-1 (hCB1) and Human CB1 Receptor-1b (hCBib)
(§2) hCB1/hCB1 b Gai Cyclic AMP (cAMP) Assays: Cells were seeded in a 384-well plate at an appropriate density from frozen cells. The cAMP assays were performed according to the manufacturer's protocol using MULTISCREEN™ TR-FRET cAMP 1.0 No Wash Assay Kit. Cells (hCB1 or hCB1 b) were pre-incubated with customer compounds for 30 minutes at rt followed by addition of EC80 CP55940 concentration and Forskolin. Cells were then incubated for 20 minutes at 37C. The reaction was terminated by sequentially adding sequentially adding MULTISCREEN™ Eu-labeled cAMP and MULTISCREEN™ 650-labeled anti-cAMP antibody in lysis buffer. The plate was then incubated at rt for 30 minutes before reading fluorescent emissions at 620 nm and 665 with excitation at 314 nm on FlexStation III (Molecular Devices). The results are shown in Table 2 (“***” denotes an IC50<100 nM; “**” denotes an IC50 between 100 nM and 500 nM, and “*” denotes an IC50>500 nM).

[2] = molecular target: Human CB1 Receptor-1 (hCB1) (Homo sapiens (Human), UniProt P21554); experiment: hCB1 Gai cyclic AMP (cAMP) TR-FRET assay, antagonism of EC80 CP55940 with forskolin; type: cell-based; details: hCB1 cells, 30 min pre-incubation
Method: as §1, §2

Human CB1 Receptor-1 (hCB1), sequence (P21554 whole entry): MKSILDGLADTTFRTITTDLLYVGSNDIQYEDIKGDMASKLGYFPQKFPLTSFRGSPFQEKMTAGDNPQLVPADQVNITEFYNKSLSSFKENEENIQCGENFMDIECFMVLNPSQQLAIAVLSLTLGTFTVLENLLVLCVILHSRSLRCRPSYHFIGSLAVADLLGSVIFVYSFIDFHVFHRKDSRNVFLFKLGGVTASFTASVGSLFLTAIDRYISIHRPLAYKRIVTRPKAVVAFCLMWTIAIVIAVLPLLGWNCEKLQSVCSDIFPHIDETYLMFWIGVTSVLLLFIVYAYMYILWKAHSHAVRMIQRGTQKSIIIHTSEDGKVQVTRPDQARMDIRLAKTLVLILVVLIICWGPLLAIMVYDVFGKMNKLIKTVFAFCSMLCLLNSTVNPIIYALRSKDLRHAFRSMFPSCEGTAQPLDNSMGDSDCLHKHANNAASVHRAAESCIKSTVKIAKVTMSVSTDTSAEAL
Human CB1 Receptor-1b (hCB1b), sequence (P21554 other isoform, or with tags, fused parts or gaps): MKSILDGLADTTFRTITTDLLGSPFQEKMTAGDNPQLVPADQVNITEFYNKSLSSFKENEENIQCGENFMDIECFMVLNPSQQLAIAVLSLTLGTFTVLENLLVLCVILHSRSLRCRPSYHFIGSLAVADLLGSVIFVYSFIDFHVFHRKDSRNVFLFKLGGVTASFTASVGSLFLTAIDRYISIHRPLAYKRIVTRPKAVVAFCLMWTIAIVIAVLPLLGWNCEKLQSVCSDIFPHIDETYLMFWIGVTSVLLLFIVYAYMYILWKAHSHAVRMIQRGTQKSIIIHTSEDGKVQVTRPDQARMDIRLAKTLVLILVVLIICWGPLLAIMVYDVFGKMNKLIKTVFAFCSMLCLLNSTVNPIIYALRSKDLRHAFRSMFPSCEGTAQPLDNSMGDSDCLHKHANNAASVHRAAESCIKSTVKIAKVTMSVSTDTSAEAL

SMILES	IC50 [1] [µM]	IC50 [2] [µM]
NS(=O)(=O)NCCN/C(=N\S(=O)(=O)c1ccc(Cl)cc1)N1C[C@H](c2ccccc2)C(c2ccc(Cl)cc2)=N1 [Compound 183, (S,E)-3-(4-chlorophenyl)-N′-((4-chlorophenyl)sulfonyl)-4-phenyl-N-(2-(sulfamoylamino)ethyl)-4,5-dihydro-1H-pyrazole-1-carboximidamide]	< 0.1	< 0.1
NS(=O)(=O)[C@@H]1CC[C@H](N/C(=N/S(=O)(=O)c2ccc(Cl)cc2)N2C[C@H](c3ccccc3)C(c3ccc(Cl)cc3)=N2)C1 [Compound 143, (S,Z)-3-(4-chlorophenyl)-N′-((4-chlorophenyl)sulfonyl)-4-phenyl-N-((1S,3R)-3-sulfamoylcyclopentyl)-4,5-dihydro-1H-pyrazole-1-carboximidamide]	< 0.1	< 0.1
C[C@@H](CN/C(=N\S(=O)(=O)c1ccc(F)cc1)N1C[C@H](c2ccccc2)C(c2ccc(F)cc2)=N1)S(N)(=O)=O [Compound 54, (S,E)-3-(4-fluorophenyl)-N′-((4-fluorophenyl)sulfonyl)-4-phenyl-N-((S)-2-sulfamoylpropyl)-4,5-dihydro-1H-pyrazole-1-carboximidamide]	< 0.1	< 0.1
CN1CCN(S(=O)(=O)CCN/C(=N\S(=O)(=O)c2ccc(Cl)cc2)N2C[C@H](c3ccccc3)C(c3ccc(F)cc3)=N2)CC1 [Compound 163, (S,E)-N′-((4-chlorophenyl)sulfonyl)-3-(4-fluorophenyl)-N-(2-((4-methylpiperazin-1-yl)sulfonyl)ethyl)-4-phenyl-4,5-dihydro-1H-pyrazole-1-carboximidamide]	0.1 to 0.5	< 0.1
NS(=O)(=O)NC1(CN/C(=N\S(=O)(=O)c2ccc(C(F)(F)F)cc2)N2C[C@H](c3ccccc3)C(c3ccc(Cl)cc3)=N2)CC1 [Compound 235, (S,E)-3-(4-chlorophenyl)-4-phenyl-N-((1-(sulfamoylamino)cyclopropyl)methyl)-N′-((4-(trifluoromethyl)phenyl)sulfonyl)-4,5-dihydro-1H-pyrazole-1-carboximidamide]	< 0.1	0.1 to 0.5
NS(=O)(=O)CCN/C(=N\S(=O)(=O)c1ccc(F)cc1)N1C[C@H](c2ccccc2)C(c2ccc(Cl)cc2)=N1 [Compound 11, (S,E)-3-(4-chlorophenyl)-N′-((4-fluorophenyl)sulfonyl)-4-phenyl-N-(2-sulfamoylethyl)-4,5-dihydro-1H-pyrazole-1-carboximidamide]	< 0.1	< 0.1
Cn1ncc(S(=O)(=O)N=C(NCCS(N)(=O)=O)N2C[C@H](c3ccccc3)C(c3ccc(Cl)cc3)=N2)n1 [Compound 73, (S)-3-(4-chlorophenyl)-N′-((2-methyl-2H-1,2,3-triazol-4-yl)sulfonyl)-4-phenyl-N-(2-sulfamoylethyl)-4,5-dihydro-1H-pyrazole-1-carboximidamide]	0.1 to 0.5	0.1 to 0.5
NS(=O)(=O)CCNC(=NS(=O)(=O)c1cccnc1)N1C[C@H](c2ccccc2)C(c2ccc(Cl)cc2)=N1 [Compound 65, (S)-3-(4-chlorophenyl)-4-phenyl-N′-(pyridin-3-ylsulfonyl)-N-(2-sulfamoylethyl)-4,5-dihydro-1H-pyrazole-1-carboximidamide]	< 0.1	< 0.1
NS(=O)(=O)C1CCN(/C(=N/S(=O)(=O)c2ccc(Cl)cc2)N2C[C@H](c3ccccc3)C(c3ccc(Cl)cc3)=N2)CC1 [Compound 113, (S,Z)-1-((3-(4-chlorophenyl)-4-phenyl-4,5-dihydro-1H-pyrazol-1-yl)(((4-chlorophenyl)sulfonyl)imino)methyl)piperidine-4-sulfonamide]	> 0.5	> 0.5
NS(=O)(=O)[C@H]1CCN(/C(=N/S(=O)(=O)c2ccc(Cl)cc2)N2C[C@H](c3ccccc3)C(c3ccc(Cl)cc3)=N2)C1 (single isomer, unassigned) [Compound 135]	> 0.5	> 0.5
C[C@@H](CS(N)(=O)=O)N/C(=N\S(=O)(=O)c1ccc(Cl)cc1)N1CC(c2ccccc2)C(c2ccc(Cl)cc2)=N1 (stereo in doubt) [Compound 1, (R,E)-3-(4-chlorophenyl)-N′-((4-chlorophenyl)sulfonyl)-4-phenyl-N-((S)-1-sulfamoylpropan-2-yl)-4,5-dihydro-1H-pyrazole-1-carboximidamide]	< 0.1	< 0.1
C[C@@H](CN/C(=N\S(=O)(=O)c1ccc(C(F)(F)F)cc1)N1C[C@H](c2ccccc2)C(c2ccc(F)cc2)=N1)S(N)(=O)=O (single isomer, unassigned) [Compound 48]	< 0.1	< 0.1
NS(=O)(=O)CCNC(=NS(=O)(=O)c1cccc(Cl)c1)N1C[C@H](c2ccccc2)C(c2ccc(Cl)cc2)=N1 [Compound 31, (S)-3-(4-chlorophenyl)-N′-((3-chlorophenyl)sulfonyl)-4-phenyl-N-(2-sulfamoylethyl)-4,5-dihydro-1H-pyrazole-1-carboximidamide]	< 0.1	< 0.1
Cn1cnc(S(=O)(=O)N=C(NCCS(N)(=O)=O)N2C[C@H](c3ccccc3)C(c3ccc(Cl)cc3)=N2)c1 [Compound 67, (S)-3-(4-chlorophenyl)-N′-((1-methyl-1H-imidazol-4-yl)sulfonyl)-4-phenyl-N-(2-sulfamoylethyl)-4,5-dihydro-1H-pyrazole-1-carboximidamide]	> 0.5	> 0.5
CN1CCN(S(=O)(=O)CCN/C(=N\S(=O)(=O)c2ccc(F)cc2)N2C[C@H](c3ccccc3)C(c3ccc(F)cc3)=N2)CC1 [Compound 165, (S,E)-3-(4-fluorophenyl)-N′-((4-fluorophenyl)sulfonyl)-N-(2-((4-methylpiperazin-1-yl)sulfonyl)ethyl)-4-phenyl-4,5-dihydro-1H-pyrazole-1-carboximidamide]	0.1 to 0.5	< 0.1
NS(=O)(=O)[C@H]1CC[C@H](N/C(=N/S(=O)(=O)c2ccc(Cl)cc2)N2C[C@H](c3ccccc3)C(c3ccc(Cl)cc3)=N2)C1 (single isomer, unassigned) [Compound 139]	0.1 to 0.5	0.1 to 0.5
CN(C)S(=O)(=O)CCN/C(=N\S(=O)(=O)c1ccc(Cl)cc1)N1C[C@H](c2ccccc2)C(c2ccc(Cl)cc2)=N1 [Compound 155, (S,E)-3-(4-chlorophenyl)-N′-((4-chlorophenyl)sulfonyl)-N-(2-(N,N-dimethylsulfamoyl)ethyl)-4-phenyl-4,5-dihydro-1H-pyrazole-1-carboximidamide]	< 0.1	< 0.1
C[C@H](CN/C(=N\S(=O)(=O)c1ccc(Cl)cc1)N1C[C@H](c2ccccc2)C(c2ccc(Cl)cc2)=N1)S(N)(=O)=O [Compound 5, (S,E)-3-(4-chlorophenyl)-N′-((4-chlorophenyl)sulfonyl)-4-phenyl-N-((R)-2-sulfamoylpropyl)-4,5-dihydro-1H-pyrazole-1-carboximidamide]	0.1 to 0.5	< 0.1
NS(=O)(=O)[C@H]1CC[C@@H](N/C(=N/S(=O)(=O)c2ccc(Cl)cc2)N2C[C@H](c3ccccc3)C(c3ccc(F)cc3)=N2)CC1 (single isomer, unassigned) [Compound 123]	> 0.5	> 0.5
C[C@@H](CN/C(=N\S(=O)(=O)c1ccc(Cl)cc1)N1C[C@H](c2ccccc2)C(c2ccc(Cl)cc2)=N1)S(N)(=O)=O [Compound 6, (S,E)-3-(4-chlorophenyl)-N′-((4-chlorophenyl)sulfonyl)-4-phenyl-N-((S)-2-sulfamoylpropyl)-4,5-dihydro-1H-pyrazole-1-carboximidamide]	< 0.1	0.1 to 0.5
NS(=O)(=O)[C@H]1CC[C@H](N/C(=N/S(=O)(=O)c2ccc(Cl)cc2)N2C[C@@H](c3ccccc3)C(c3ccc(Cl)cc3)=N2)CC1 (single isomer, unassigned) [Compound 122]	0.1 to 0.5	0.1 to 0.5
NS(=O)(=O)[C@H]1CC[C@@H](N/C(=N/S(=O)(=O)c2ccc(Cl)cc2)N2C[C@H](c3ccccc3)C(c3ccc(Cl)cc3)=N2)C1 (single isomer, unassigned) [Compound 145]	0.1 to 0.5	0.1 to 0.5
NS(=O)(=O)[C@@H]1CCN(/C(=N/S(=O)(=O)c2ccc(Cl)cc2)N2C[C@H](c3ccccc3)C(c3ccc(Cl)cc3)=N2)C1 (single isomer, unassigned) [Compound 136]	> 0.5	> 0.5
